Among the data in US20230293535A1, “ERBB/BTK INHIBITORS” (Dizal (Jiangsu) Pharmaceutical Co., Ltd., priority 2018, published 2023) are IC50 and GI50 values, retold here.

SMILES strings stand for the structures.

Common to all, as to type: cell-based
For one assay, the target named is T1, WT EGFR (Homo sapiens, UniProt P00533).
T1 construct: host or cells: A-431
Kind of assay: WT EGFR cellular phosphorylation inhibition in A-431 (hEGF stimulated, MSD).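 Further: electrochemiluminescence read-out of EGFR Tyr1068 phosphorylation expressed as ratio to total EGFR, cells kept in medium with 1% FBS, compounds tested as a concentration series.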 To be noted: A431 cells, 4 h compound, then 100 ng/ml hEGF 10 min.

The target in a further assay is T2, EGFR L858R&T790M (Homo sapiens, UniProt P00533, L858R/T790M).
T2 construct: host or cells: NCI-H1975
Kind of assay: EGFR L858R and T790M cellular phosphorylation inhibition in NCI-H1975 (MSD).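 Further: phosphorylated and total EGFR detected by electrochemiluminescence, cells exposed to compound in medium containing 1% FBS at 37 °C.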 The note with it: NCI-H1975 cells, 4 h compound, p-EGFR(Y1068)/total EGFR; read-out: EGFR L858R and T790M mutation IC50.

In the next assay the test system is Ba/F3 EGFR NPH ins cells. Kind of assay: Cell proliferation, Ba/F3 EGFR NPH ins (CellTiter-Glo, 72 h).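 Further: IL3-independent cells carrying constitutively phosphorylated EGFR, compound dilution series, viable cells quantified by ATP luminescence, growth relative to DMSO wells after subtracting pre-dosing (day 0) baseline.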 The note with it: Ba/F3 EGFR, 72 h, Ba/F3 EGFR NPH ins, 72 h proliferation; read-out: EGFR Exon20 NPH insertion GI50. A general note: Cellular ATP, detected with luciferase, serves as a proxy for viable cell number.
The next assay relates to Ri-1 cells. Kind of assay: BTK (wt) cell proliferation, Ri-1 (CellTiter-Glo, 72 h).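 Further: viable cells quantified as cellular ATP luminescence, proliferation normalized to a time-zero plate and the DMSO control, compounds tested across a dilution series.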 To be noted: Ri-1, 72 h, Ri-1 cells, 72 h, CellTiter-Glo; read-out: BTK WT Ri-1 GI50.
Assay [1] addresses T3, human EGFR exon 20 H773_V774insNPH (Homo sapiens, UniProt P00533, INS773NPH).
T3 construct: host or cells: Ba/F3
Kind of assay: EGFR Exon20 NPH insertion cellular phosphorylation inhibition (MSD pEGFR Y1068/total EGFR).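 Further: IL3-independent Ba/F3 cells with constitutively phosphorylated EGFR, compound exposure at 37 °C under 5% CO2, electrochemiluminescent MSD measurement of the p-EGFR to total EGFR ratio.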 The note with it: Ba/F3 EGFR NPH ins cells, 4 h compound, p-EGFR(Y1068)/total EGFR.

For the next assay, the system named is OCI-LY-10 cells. Kind of assay: BTK (wt) cell proliferation, OCI-LY-10 (CellTiter-Glo, 72 h).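 Further: viable cells quantified via cellular ATP luminescence, proliferation given as percent of DMSO control after subtracting a duplicate plate read at time of dosing.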 To be noted: Homo sapiens, OCI-Ly10, 72 h, OCI-LY-10 cells, 72 h, CellTiter-Glo; read-out: BTK WT OCI-LY-10 GI50.
The next assay deals with Ba/F3 EGFR ASV ins cells. Nature of the assay: Cell proliferation, Ba/F3 EGFR ASV ins (CellTiter-Glo, 72 h).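 Further: IL3-independent Ba/F3 cells transduced with EGFR V769_D770insASV, cellular ATP luminescence after compound exposure, growth relative to DMSO control with the day-0 baseline reading subtracted.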 To be noted: Ba/F3 EGFR, 72 h, Ba/F3 EGFR ASV ins, 72 h proliferation; read-out: EGFR Exon20 ASV insertion GI50.
The test system of the next assay is WT EGFR cell line A-431. Nature of the assay: Cell proliferation, WT EGFR A431 (CellTiter-Glo, 72 h).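 Further: proliferation from a luminescent ATP viability signal, expressed as 100 × (treated minus time-zero plate) over (DMSO control minus time-zero plate), cells grown with 10% FBS.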 The note with it: Homo sapiens, A-431, 72 h, A431, 72 h proliferation; read-out: EGFR WT A431 GI50.
The test system of assay [2] is Her2 exon 20 insertion YVMA transduced NIH-3T3 cell line. Nature of the assay: Cell proliferation, Her2 YVMAins NIH-3T3 (CellTiter-Glo, 72 h).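 Further: viable cells quantified by ATP luminescence, growth over a day-zero baseline plate expressed as percent of DMSO control growth, compound dilution series in 10% FBS medium.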 The note with it: Mus musculus, NIH3T3, 72 h, Her2 YVMAins cells, 72 h proliferation; read-out: Her2 Exon 20 YVMA insertion GI50.
Assay [3] deals with NCI-H1975 EGFR L858R/T790M cells. Nature of the assay: Cell proliferation, NCI-H1975 EGFR L858R/T790M (CellTiter-Glo, 72 h).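 Further: viable cells quantified by luciferase-based ATP luminescence, proliferation expressed relative to DMSO-treated wells (100%) after subtracting a parallel plate read at the time of dosing.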 To be noted: Homo sapiens, NCI-H1975, 72 h, NCI-H1975, 72 h proliferation; read-out: EGFR L858R and T790M mutation GI50.
The next assay deals with DB cells. Nature of the assay: BTK (wt) cell proliferation, DB (CellTiter-Glo, 72 h).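 Further: DB cells in 384-well plates given a dilution series of compound, viable cells read by ATP luminescence, growth expressed versus DMSO control after subtracting a time-zero plate reading.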 To be noted: Homo sapiens, DB, DB cells, CellTiter-Glo, read-out: Non-BCR activated DB GI50.
A further assay has as its system TMD-8 cells. Kind of assay: BTK (wt) cell proliferation, TMD-8 (CellTiter-Glo, 72 h).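 Further: viable cells quantified by ATP-based luminescence, proliferation expressed as percent of DMSO control after subtracting a time-zero baseline plate read at dosing.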 The note with it: Homo sapiens, TMD8, 72 h, TMD-8 cells, 72 h, CellTiter-Glo; read-out: BTK WT TMD-8 GI50.
The target of assay [4] is T4, human Her2 exon 20 insertion mutation YVMA (Homo sapiens, UniProt P04626, INS775YVMA).
T4 construct: expressed in transfected cells; host or cells: NIH-3T3, lentiviral transduction, puromycin selection
Kind of assay: Her2 Exon 20 YVMA insertion cellular phosphorylation inhibition (MSD p-Her2 Y1248/total Her2).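 Further: lentivirally transduced NIH-3T3 cells in 1% FBS medium, electrochemiluminescent MSD read-out, graded compound concentrations at 37 °C.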 To be noted: Her2 YVMAins cells, 4 h compound.

Assay [5] deals with T5, human EGFR exon 20 V769_D770insASV (Homo sapiens, UniProt P00533, INS769ASV).
T5 construct: expressed in transfected cells; host or cells: Ba/F3 (DSMZ ACC-300), lentiviral transduction, puromycin selection, IL3 depletion
Kind of assay: EGFR Exon20 ASV insertion cellular phosphorylation inhibition (MSD pEGFR Y1068/total EGFR).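 Further: electrochemiluminescent readout on an MSD SECTOR Imager, IL3-independent transduced cells in medium with 1% FBS, compound concentration series at 37 °C and 5% CO2.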 To be noted: Ba/F3 EGFR ASV ins cells, 4 h compound, p-EGFR(Y1068)/total EGFR.

Broadly, the IC50 is the midpoint of a concentration-inhibition curve. The GI50 is the concentration at which growth is held to half of that of the control.

T3 sequence (P00533 with tags, fused parts or gaps INS773NPH): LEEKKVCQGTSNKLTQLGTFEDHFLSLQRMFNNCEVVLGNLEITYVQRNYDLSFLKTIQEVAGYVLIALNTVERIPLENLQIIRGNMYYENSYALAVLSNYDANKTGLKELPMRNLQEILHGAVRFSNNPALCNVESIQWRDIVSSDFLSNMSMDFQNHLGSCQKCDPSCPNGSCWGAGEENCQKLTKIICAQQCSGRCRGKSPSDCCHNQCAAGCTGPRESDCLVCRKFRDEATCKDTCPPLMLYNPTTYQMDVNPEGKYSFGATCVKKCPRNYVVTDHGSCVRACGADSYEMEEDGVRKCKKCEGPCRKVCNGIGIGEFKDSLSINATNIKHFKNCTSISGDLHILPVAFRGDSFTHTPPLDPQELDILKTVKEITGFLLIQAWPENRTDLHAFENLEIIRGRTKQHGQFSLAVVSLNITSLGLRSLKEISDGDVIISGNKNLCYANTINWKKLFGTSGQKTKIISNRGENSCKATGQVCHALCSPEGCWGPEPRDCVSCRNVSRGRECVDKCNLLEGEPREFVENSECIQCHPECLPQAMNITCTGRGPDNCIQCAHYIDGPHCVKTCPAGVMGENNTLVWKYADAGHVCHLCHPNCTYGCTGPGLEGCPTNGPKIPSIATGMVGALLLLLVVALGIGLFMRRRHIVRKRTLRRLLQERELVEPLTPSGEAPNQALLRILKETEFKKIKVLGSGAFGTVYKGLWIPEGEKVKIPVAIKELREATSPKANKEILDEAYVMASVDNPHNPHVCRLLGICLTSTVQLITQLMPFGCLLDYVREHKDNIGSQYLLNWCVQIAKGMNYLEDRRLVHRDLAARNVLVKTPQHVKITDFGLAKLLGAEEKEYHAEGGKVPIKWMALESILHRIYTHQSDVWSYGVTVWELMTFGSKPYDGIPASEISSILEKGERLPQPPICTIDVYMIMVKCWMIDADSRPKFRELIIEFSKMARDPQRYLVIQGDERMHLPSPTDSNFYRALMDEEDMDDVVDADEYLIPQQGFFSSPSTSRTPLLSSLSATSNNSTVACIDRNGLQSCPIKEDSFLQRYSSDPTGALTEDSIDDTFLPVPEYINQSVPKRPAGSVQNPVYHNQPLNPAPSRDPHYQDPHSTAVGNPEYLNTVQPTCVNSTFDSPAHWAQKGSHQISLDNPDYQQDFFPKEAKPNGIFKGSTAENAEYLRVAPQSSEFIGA
T4 sequence (P04626 with tags, fused parts or gaps INS775YVMA): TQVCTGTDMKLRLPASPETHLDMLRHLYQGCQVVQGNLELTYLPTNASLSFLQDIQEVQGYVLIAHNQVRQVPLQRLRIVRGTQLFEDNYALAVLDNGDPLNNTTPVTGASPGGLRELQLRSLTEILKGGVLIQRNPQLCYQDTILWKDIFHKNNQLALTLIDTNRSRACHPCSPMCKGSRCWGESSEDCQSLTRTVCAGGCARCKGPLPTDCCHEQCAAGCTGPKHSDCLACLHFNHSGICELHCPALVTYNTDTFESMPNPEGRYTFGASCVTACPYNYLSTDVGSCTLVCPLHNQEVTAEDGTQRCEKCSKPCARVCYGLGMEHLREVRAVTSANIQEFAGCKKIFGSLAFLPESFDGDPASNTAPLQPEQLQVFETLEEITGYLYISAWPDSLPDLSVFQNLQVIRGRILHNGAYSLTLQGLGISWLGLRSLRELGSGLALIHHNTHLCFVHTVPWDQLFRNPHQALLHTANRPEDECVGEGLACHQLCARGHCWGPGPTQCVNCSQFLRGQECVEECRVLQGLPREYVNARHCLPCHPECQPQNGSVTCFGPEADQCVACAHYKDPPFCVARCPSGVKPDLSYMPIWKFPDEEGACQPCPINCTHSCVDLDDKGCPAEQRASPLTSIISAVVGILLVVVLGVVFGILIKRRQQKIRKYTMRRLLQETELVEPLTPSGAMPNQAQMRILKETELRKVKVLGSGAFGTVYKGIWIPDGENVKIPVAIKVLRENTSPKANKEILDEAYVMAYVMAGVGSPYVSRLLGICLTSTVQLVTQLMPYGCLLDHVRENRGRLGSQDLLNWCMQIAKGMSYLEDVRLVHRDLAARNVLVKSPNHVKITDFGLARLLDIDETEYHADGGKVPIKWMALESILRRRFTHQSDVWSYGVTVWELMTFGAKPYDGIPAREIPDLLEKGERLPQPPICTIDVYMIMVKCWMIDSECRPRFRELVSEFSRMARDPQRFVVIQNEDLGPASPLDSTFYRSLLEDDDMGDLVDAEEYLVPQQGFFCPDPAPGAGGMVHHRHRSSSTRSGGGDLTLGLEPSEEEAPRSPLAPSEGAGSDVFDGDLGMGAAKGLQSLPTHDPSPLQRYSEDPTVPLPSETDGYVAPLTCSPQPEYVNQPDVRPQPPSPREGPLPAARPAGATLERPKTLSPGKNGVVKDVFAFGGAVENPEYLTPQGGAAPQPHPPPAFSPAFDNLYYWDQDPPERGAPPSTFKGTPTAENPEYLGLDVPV
T2 sequence (P00533 25-1210 T790M/L858R): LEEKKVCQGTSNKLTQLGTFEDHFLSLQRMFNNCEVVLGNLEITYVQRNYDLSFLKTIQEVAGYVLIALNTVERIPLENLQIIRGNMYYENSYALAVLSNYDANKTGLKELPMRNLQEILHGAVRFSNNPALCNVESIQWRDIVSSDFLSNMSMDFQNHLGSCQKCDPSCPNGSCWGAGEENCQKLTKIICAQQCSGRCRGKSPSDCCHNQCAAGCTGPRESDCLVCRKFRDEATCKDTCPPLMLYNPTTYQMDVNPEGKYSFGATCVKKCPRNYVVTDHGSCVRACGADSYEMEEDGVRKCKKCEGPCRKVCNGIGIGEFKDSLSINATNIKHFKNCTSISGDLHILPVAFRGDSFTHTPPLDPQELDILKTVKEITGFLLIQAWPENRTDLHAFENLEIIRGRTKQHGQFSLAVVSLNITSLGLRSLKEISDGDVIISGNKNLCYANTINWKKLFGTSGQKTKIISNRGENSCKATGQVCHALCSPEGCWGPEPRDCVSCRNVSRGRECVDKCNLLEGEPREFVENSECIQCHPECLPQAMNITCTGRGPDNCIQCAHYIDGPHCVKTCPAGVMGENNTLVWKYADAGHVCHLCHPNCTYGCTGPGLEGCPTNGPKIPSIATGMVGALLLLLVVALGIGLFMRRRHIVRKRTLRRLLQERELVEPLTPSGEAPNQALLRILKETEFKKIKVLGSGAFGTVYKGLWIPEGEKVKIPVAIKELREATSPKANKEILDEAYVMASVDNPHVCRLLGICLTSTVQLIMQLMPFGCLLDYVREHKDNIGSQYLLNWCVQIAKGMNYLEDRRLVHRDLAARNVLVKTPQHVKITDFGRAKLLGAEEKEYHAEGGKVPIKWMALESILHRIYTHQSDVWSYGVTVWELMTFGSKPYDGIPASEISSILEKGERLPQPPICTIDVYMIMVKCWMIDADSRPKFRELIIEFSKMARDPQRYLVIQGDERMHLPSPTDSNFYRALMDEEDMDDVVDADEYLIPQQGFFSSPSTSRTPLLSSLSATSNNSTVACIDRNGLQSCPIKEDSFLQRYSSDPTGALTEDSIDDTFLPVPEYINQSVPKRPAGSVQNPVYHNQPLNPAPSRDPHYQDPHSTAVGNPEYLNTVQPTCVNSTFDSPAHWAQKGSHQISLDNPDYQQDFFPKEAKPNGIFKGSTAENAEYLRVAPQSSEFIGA
T1 sequence (P00533 25-1210): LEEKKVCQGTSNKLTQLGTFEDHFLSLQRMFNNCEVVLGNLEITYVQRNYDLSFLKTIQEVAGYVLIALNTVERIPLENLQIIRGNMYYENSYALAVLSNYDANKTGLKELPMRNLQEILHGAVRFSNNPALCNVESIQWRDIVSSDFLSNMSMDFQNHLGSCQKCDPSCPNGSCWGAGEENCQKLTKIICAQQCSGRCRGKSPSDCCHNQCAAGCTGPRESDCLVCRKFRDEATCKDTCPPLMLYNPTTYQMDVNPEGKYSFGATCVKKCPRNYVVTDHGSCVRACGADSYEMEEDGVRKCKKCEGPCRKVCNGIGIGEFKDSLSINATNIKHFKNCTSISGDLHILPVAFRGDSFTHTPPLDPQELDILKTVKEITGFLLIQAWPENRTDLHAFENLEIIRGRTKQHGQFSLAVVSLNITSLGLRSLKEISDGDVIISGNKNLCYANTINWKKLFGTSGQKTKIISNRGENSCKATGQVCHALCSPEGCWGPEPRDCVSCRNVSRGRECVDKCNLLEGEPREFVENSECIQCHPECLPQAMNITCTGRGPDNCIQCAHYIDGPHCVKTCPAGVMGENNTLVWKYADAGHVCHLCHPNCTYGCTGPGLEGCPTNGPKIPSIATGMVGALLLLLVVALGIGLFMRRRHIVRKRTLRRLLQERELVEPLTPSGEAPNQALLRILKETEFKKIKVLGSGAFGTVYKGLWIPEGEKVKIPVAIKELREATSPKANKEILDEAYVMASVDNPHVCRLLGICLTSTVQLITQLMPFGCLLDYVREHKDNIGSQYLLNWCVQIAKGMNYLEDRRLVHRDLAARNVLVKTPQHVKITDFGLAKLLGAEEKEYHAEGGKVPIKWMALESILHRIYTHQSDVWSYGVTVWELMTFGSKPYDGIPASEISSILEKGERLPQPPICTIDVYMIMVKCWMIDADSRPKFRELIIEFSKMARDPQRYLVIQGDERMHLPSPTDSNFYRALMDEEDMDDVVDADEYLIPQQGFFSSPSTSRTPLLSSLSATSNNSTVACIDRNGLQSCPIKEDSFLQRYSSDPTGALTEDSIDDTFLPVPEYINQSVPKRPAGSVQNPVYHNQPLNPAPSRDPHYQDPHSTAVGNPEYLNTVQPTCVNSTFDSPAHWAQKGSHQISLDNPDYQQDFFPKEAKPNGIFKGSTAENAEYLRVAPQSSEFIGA

With `C=CC(=O)Nc1cc(Nc2ncnc(Nc3cc(F)c(F)cc3C(C)(O)CC)n2)c(OC)cc1N(C)CCN(C)C` (stereo not shown) [Compound 49, N-(5-(4-(4,5-difluoro-2-(2-hydroxybutan-2-yl)phenylamino)-1,3,5-triazin-2-ylamino)-2-((2-(dimethylamino)ethyl)(methyl)amino)-4-methoxyphenyl)acr ylamide], the IC50 against WT EGFR turned out to be 22.8 nM; at EGFR L858R&T790M it was 0.5 nM; in [1] it was 19.6 nM; in assay [4], 6.2 nM; in assay [5], 9.6 nM. Also, the concentration for 50% growth inhibition (GI50) in the assay with Ba/F3 EGFR NPH ins cells amounted to 31.6 nM; in the assay on Ri-1 cells, 566 nM; in the assay on OCI-LY-10 cells, 1250 nM; with Ba/F3 EGFR ASV ins cells, 31.9 nM; in the assay with WT EGFR cell line A-431, 15.3 nM; in assay [2] it was 36.1 nM. The GI50 in assay [3] was 1.5 nM; with DB cells, greater than 3000 nM; in the assay on TMD-8 cells, 107 nM.
As to `C=CC(=O)Nc1cc(Nc2ncnc(Nc3cc(Cl)c(Cl)cc3C(C)(C)O)n2)c(OC)cc1N1CC[C@@H]1CN(C)C` [Compound 54, (R)-N-(5-(4-(4,5-dichloro-2-(2-hydroxypropan-2-yl)phenylamino)-1,3,5-triazin-2-ylamino)-2-(2-((dimethylamino)methyl)azetidin-1-yl)-4-methoxyphenyl)acrylamide], the IC50 on WT EGFR turned out to be 60.5 nM; on EGFR L858R&T790M, 2.4 nM; in assay [1] it was 29.9 nM; in assay [4] it was 14.2 nM; in assay [5], 39.4 nM. The GI50 with Ba/F3 EGFR NPH ins cells came to 68 nM; in the assay with Ri-1 cells it was 9.97 nM; in the assay with OCI-LY-10 cells it was 4.42 nM; in the assay with Ba/F3 EGFR ASV ins cells, 104 nM; with WT EGFR cell line A-431, 41.3 nM; in [2], 210 nM. Moreover, the GI50 in assay [3] was 6.1 nM; with DB cells, greater than 3000 nM; in the assay on TMD-8 cells, 3.62 nM.
For the compound `C=CC(=O)Nc1cc(Nc2ncnc(Nc3cc(F)c(F)cc3C(C)(O)CC)n2)c(OC)cc1N1CC[C@@H]1CN(C)C` (stereo partly drawn) [Compound 55, N-(5-(4-(4,5-difluoro-2-(2-hydroxybutan-2-yl)phenylamino)-1,3,5-triazin-2-ylamino)-2-((R)-2-((dimethylamino)methyl)azetidin-1-yl)-4-methoxyphenyl)acrylamide], the IC50 against WT EGFR amounted to 30.9 nM; on EGFR L858R&T790M, 0.8 nM; in [1], 20.1 nM; in assay [4], 8.4 nM; in assay [5] it was 9.8 nM. Also, the GI50 in the assay with Ba/F3 EGFR NPH ins cells was 62.6 nM; in the assay on Ri-1 cells, 12 nM; with OCI-LY-10 cells, 6.68 nM; in the assay with Ba/F3 EGFR ASV ins cells it was 44.1 nM; in the assay on WT EGFR cell line A-431 it was 14.6 nM; in [2], 88.9 nM. The values for the GI50 (in assay [3]; with DB cells; with TMD-8 cells) were 3.8 nM, greater than 3000 nM and 11.5 nM, respectively.
As for `C=CC(=O)Nc1cc(Nc2ncnc(Nc3cc(Cl)c(F)cc3C(C)(O)CC)n2)c(OC)cc1N1CC[C@@H]1CN(C)C` (stereo partly drawn) [Compound 56, N-(5-(4-(5-chloro-4-fluoro-2-(2-hydroxybutan-2-yl)phenylamino)-1,3,5-triazin-2-ylamino)-2-((R)-2-((dimethylamino)methyl)azetidin-1-yl)-4-methoxyphenyl)acrylamide], the IC50 on WT EGFR is 35.4 nM; on EGFR L858R&T790M, 1 nM; in [1] it was 17.8 nM; in assay [4] it was 7.8 nM; in [5], 15.5 nM. Moreover, the GI50 with Ba/F3 EGFR NPH ins cells was 63.8 nM; in the assay on Ri-1 cells it was 13.4 nM; in the assay on OCI-LY-10 cells, 14.6 nM; in the assay with Ba/F3 EGFR ASV ins cells it was 45.1 nM; in the assay with WT EGFR cell line A-431 it was 14.3 nM; in assay [2], 76.6 nM. Moreover, the GI50 was 4.2 nM in assay [3], greater than 3000 nM in the assay on DB cells and 7.07 nM in the assay with TMD-8 cells.
Turning to `C=CC(=O)Nc1cc(Nc2ncnc(Nc3cc(F)c(F)cc3C(C)(O)CC)n2)c(OC)cc1N1CCC[C@@H]1CN(C)C` (stereo partly drawn) [Compound 57, N-(5-(4-(4,5-difluoro-2-(2-hydroxybutan-2-yl)phenylamino)-1,3,5-triazin-2-ylamino)-2-((R)-2-((dimethylamino)methyl)pyrrolidin-1-yl)-4-methoxyphenyl)acrylamide], the half-maximal inhibitory concentration (IC50) at WT EGFR is 10.5 nM; at EGFR L858R&T790M, 0.4 nM; in assay [1], 8.5 nM; in assay [4] it was 2.6 nM; in [5], 7.1 nM. The 50% growth inhibitory concentration (GI50) in the assay with Ba/F3 EGFR NPH ins cells came out at 14.8 nM; in the assay with Ri-1 cells, 34.6 nM; in the assay on OCI-LY-10 cells, 72 nM; in the assay on Ba/F3 EGFR ASV ins cells, 11.4 nM; in the assay with WT EGFR cell line A-431 it was 6.1 nM; in [2], 18.7 nM. In addition, the figures for the GI50 (in assay [3]; in the assay on DB cells; with TMD-8 cells) were 1.3 nM, greater than 3000 nM and 22.9 nM, respectively.
Take `C=CC(=O)Nc1cc(Nc2ncnc(Nc3cc(F)c(F)cc3C(C)(O)CC)n2)c(OC)cc1N1CCC[C@H]1CN(C)C` (stereo partly drawn) [Compound 58, N-(5-(4-(4,5-difluoro-2-(2-hydroxybutan-2-yl)phenylamino)-1,3,5-triazin-2-ylamino)-2-((S)-2-((dimethylamino)methyl)pyrrolidin-1-yl)-4-methoxyphenyl)acrylamide]: the IC50 on WT EGFR is 627 nM; at EGFR L858R&T790M, 3.6 nM; in assay [1], 297 nM; in [4], 117 nM; in [5], 77.3 nM. The GI50 in the assay on Ba/F3 EGFR NPH ins cells came to 210 nM; in the assay on Ri-1 cells it was 372 nM; with OCI-LY-10 cells, 320 nM; in the assay on Ba/F3 EGFR ASV ins cells, 251 nM; with WT EGFR cell line A-431, 178 nM; in [2] it was 553 nM. Further, the figures for the GI50 (in [3]; in the assay with DB cells; in the assay with TMD-8 cells) were 13.1 nM, greater than 3000 nM and 262 nM, respectively.
Regarding `C=CC(=O)Nc1cc(Nc2ncnc(Nc3cc(Cl)c(F)cc3C(C)(C)O)n2)c(OC)cc1N1CC[C@H](N(C)C)C1` [Compound 60, (S)-N-(5-(4-(5-chloro-4-fluoro-2-(2-hydroxypropan-2-yl)phenylamino)-1,3,5-triazin-2-ylamino)-2-(3-(dimethylamino)pyrrolidin-1-yl)-4-methoxyphenyl)acrylamide], the concentration for half-maximal inhibition (IC50) against WT EGFR amounted to 50.7 nM; at EGFR L858R&T790M, 1.3 nM; in assay [1], 28.9 nM; in assay [4], 11.6 nM; in assay [5], 22.3 nM. Moreover, the GI50 was determined as 48.6 nM with Ba/F3 EGFR NPH ins cells; 38.9 nM in the assay on Ri-1 cells; 13.5 nM with OCI-LY-10 cells; 76.3 nM with Ba/F3 EGFR ASV ins cells; 25 nM in the assay with WT EGFR cell line A-431; 102 nM in [2]. Further, the GI50 was 2.5 nM in [3], greater than 3000 nM with DB cells and 11.5 nM in the assay on TMD-8 cells.
For `C=CC(=O)Nc1cc(Nc2ncnc(Nc3cc(F)c(Cl)cc3C(C)(C)O)n2)c(OC)cc1N1CC[C@@H]1CN(C)C` [Compound 62, (R)-N-(5-(4-(4-chloro-5-fluoro-2-(2-hydroxypropan-2-yl)phenylamino)-1,3,5-triazin-2-ylamino)-2-(2-((dimethylamino)methyl)azetidin-1-yl)-4-methoxyphenyl)acrylamide], the 50% inhibitory concentration (IC50) was 27.4 nM at WT EGFR; 0.5 nM on EGFR L858R&T790M; 19.3 nM in assay [1]; 11.4 nM in assay [4]; 10.7 nM in [5]. Also, the GI50 was 45.8 nM with Ba/F3 EGFR NPH ins cells; 84 nM with Ri-1 cells; 5.3 nM in the assay with OCI-LY-10 cells; 34.8 nM in the assay with Ba/F3 EGFR ASV ins cells; 13.3 nM in the assay on WT EGFR cell line A-431; 114 nM in assay [2]. In addition, the results for the GI50 (in assay [3]; in the assay with DB cells; in the assay on TMD-8 cells) were 3.2 nM, greater than 3000 nM and 3.79 nM, respectively.
